Tested on: fontane variety of potatoes
Method: There now follows a description of an experimental trial by the inventors
The goal of the trial was to recondition French fry tubers in a 2-3 week period to improve fry colour and maintain brittle sprouts.
3 trial cells were operated, each 85 cubic meters in size and holding fontane variety of potatoes. The stores holding each trial cell stores were warmed to 12.5° C.
A sample was taken from each cell. Each sample was made up of 25 tubers from the front and the back of the store. The tubers selected were showing signs of sprouting in some degree and have had variable and in some cases poor fry color results.
The first sample was sent for a benchmark Soleye fry colour measurement. Soleye is an optical colour reader used to determine fry colour.
Gradually reducing the ethylene level by 0.5 ppm per day from […] @ 12 C
First 7 days 4 ppm and from day 8 reduced to continuous 2 ppm @ 12 C

For `C=C` [ethylene], the “Soleye fry colour score (the lower the score, the better the fry colour)” value (after reconditioning, samples from store 64: continuous 2 ppm ethylene @ 12 C, FIG. 3) was 0 and the “sprout condition following reconditioning” value (cells 56, 60 and 64, ethylene programmes at 12 C, 2-3 week period, all tubers) was “maintained brittle sprouts”.

From patent publication US20210337839A1, “SYSTEM AND METHOD FOR RECO[…]” (Restrain Company Limited, priority 2020, published 2021)
